In PubChem BioAssay AID2384 (Southern Research Specialized Biocontainment Screening …, 2010):
Where “and” joins values, the source holds several entries; their conditions need not be identical. Equal values may be shown once.

System: S. typhi GFP reporter counter-screen, fluorescence, 4 h
Assay: S. typhi counter-screen signal inhibition – fluorescence, 4 h, counter-screen for PhoP regulon inhibitor project, dose response (AID 2384)

Row | SMILES | IC50
1 | CN(C)CC/C=C1/c2cc(F)ccc2Sc2ccc(Cl)cc21 | 34.3 µM
2 | CN1CCN(C2=Cc3ccccc3Sc3cc(F)ccc32)CC1 | 46.7 µM
3 | O=C(/C=C/c1ccc(F)cc1)NC(=S)NNC(=O)c1cnccn1 | 19 µM
4 | Oc1c(Br)cc(Br)cc1C=NCc1ccc(F)cc1 | 46.2 µM
5 | O=C(N/N=C/c1ccc([N+](=O)[O-])o1)c1ccc(O)cc1 | 37.6 µM
6 | O=C(CNC(=O)c1cccc(F)c1)N/N=C/c1ccc([N+](=O)[O-])s1 | 36.9 µM
7 | CCC(O)(CC)C(=O)N/N=C/c1cc(Br)cc(Br)c1O | 70.2 µM
8 | CC(C)(c1ccccc1)c1ccc(OCCCN2CCNCC2)cc1 | 39.7 µM
9 | CCN1CCN(CCNC(=O)c2ccc3c(c2)N(Cc2ccc(F)cc2)C(=O)/C(=C/c2ccccc2)S3)CC1 | 45.5 µM
10 | Cc1cc(C)c2sc(N(CCCN(C)C)C(=O)COc3ccc(Cl)cc3)nc2c1 | 34.8 µM
11 | [O-][n+]1c2c(c3c4non(O)c4ccc31)CCCC2 | 79.2 µM
12 | CC1CCC(C(C)C)C(OC(=O)C[n+]2cc(-c3ccc(Cl)cc3)n3c2CCC3)C1 (configuration not stated) | 40.3 µM
13 | CCn1cc(C(=O)O)c(=O)c2cc(F)c(N3CCN(C(=S)NC(=O)c4cc(OC)cc(OC)c4)CC3)cc21 | 143 µM
14 | C#CCOCCOCCOCCNc1nc(N2CCN(C(=O)C(Cc3ccc(O)cc3)n3cc(C(N)CC(C)C)nn3)CC2)nc(N2CCN(C(=O)C(Cc3cc4ccccc4[nH]3)n3cc(C(N)Cc4ccc(O)cc4)nn3)CC2)n1 (configuration not stated) | 37.7 µM
15 | CC1CCC(C(C)C)C(OC(=O)Cn2c(-c3ccc(Br)cc3)[n+](C)c3ccccc32)C1 (configuration not stated) | 73.6 µM
16 | CNC[C@H](Cc1ccccc1)NC[C@@H](Cc1cccc2ccccc12)NCCc1ccc(C)cc1 | 14.8 µM
17 | O=C(Nc1nc(-c2ccccn2)cs1)c1ccc(Br)s1 | 14.5 µM
18 | CCN1/C(=C/C(C)=C/c2sc3ccccc3[n+]2CC)Sc2ccccc21 | 3.1 µM
19 | Cc1ccc(NC(=O)COc2ccccc2CNC(C)(C)CC(C)(C)C)cc1 | 82.5 µM
20 | CCn1cc(C(=O)NCCCN(C)C)c(=O)c2cc(F)c(N3CCN(C)CC3)cc21 | 96.4 µM
21 | c1ccc(CN2CCN(c3nc(NCc4ccco4)c4ccccc4n3)CC2)cc1 | 64.6 µM
22 | COc1cc(Br)cc(C=Nc2cccc(C(F)(F)F)c2)c1O | 73.8 µM
23 | CCCCOc1ccc(C(=O)OC2CC(C)N(C)CC2C)cc1 (configuration not stated) | 26.7 µM

Row | SMILES | IC50
24 | c1ccc(CNc2nc(N3CCN(Cc4ccccc4)CC3)nc3ccccc23)cc1 | 25.4 µM
25 | Cc1occc1C(=O)N/N=C/C=C/c1ccccc1 | 97.1 µM
26 | NC1=NC[C@H](Cc2ccc(O)cc2)N1CCCCC1CCCCC1 | 13.9 µM
27 | O=C(O)/C(=C\C(=O)c1ccccc1)Nc1ccccc1 | 103 µM
28 | CC1(C)N=C(N)NC(Nc2cccc(Br)c2)=N1 | 72.5 µM
29 | CN1CCN(CCCN2c3ccccc3Sc3ccc(C(F)(F)F)cc32)CC1 | 36.6 µM
30 | OC(CN1CCCCC1)Cn1c2ccccc2c2cc(Br)ccc21 (configuration not stated) | 37.8 µM
31 | O=C(C[n+]1cc(-c2ccc(Cl)cc2)n2c1CCC2)Nc1nc(-c2ccccc2)cs1 | 20.1 µM
32 | CCN1CCN(CCCNC(=O)c2ccc(/C=C3/Sc4ccccc4N(Cc4ccccc4F)C3=O)cc2)CC1 | 85.4 µM
33 | c1cnc2c(c1)ccc1cccnc12 | 35 µM and 31.3 µM
34 | OCCN1CCN(Cc2cc(Cl)c3cccnc3c2O)CC1 | 56.6 µM
35 | O=S1(=O)Nc2c(ccc3cccnc23)-c2ccccc21 | 3.32 µM
36 | Cc1ccc(C(=O)NNC(=S)NC(=O)COc2ccccc2)cc1 | 63.9 µM
37 | COc1ccc(OCC(O)CNc2ccc(Br)cc2)cc1 (configuration not stated) | 3.74 µM
38 | Cc1cc(C)n(/N=C/c2cc(Cl)cc(Cl)c2O)c(=O)c1 | 101 µM
39 | Cc1cc(NC(=O)c2ccccc2)sc1C | 79.8 µM
40 | CCC(=O)c1ccc(OCC(O)CNCCc2ccc(Cl)cc2)cc1 (configuration not stated) | 147 µM
41 | NC1CCN(c2nc3c(cc2F)c(=O)c(C(=O)O)cn3-c2ccc(F)cc2F)C1 (configuration not stated) | 1.53 µM
42 | C=CC1=C(C(=O)O)N2C(=O)[C@@H](NC(=O)/C(=N\O)c3csc(N)n3)[C@H]2SC1 (stereo in doubt) | 15.4 µM
43 | CO[C@@]1(NC(=O)C2SC(=C(C(N)=O)C(=O)O)S2)C(=O)N2C(C(=O)O)=C(CSc3nnnn3C)CS[C@@H]21 (some centres not stated) | 10.3 µM
44 | O=C(CN1CC(c2ccccc2)CC1=O)N/N=C/c1cc(Br)ccc1O (configuration not stated) | 40.2 µM
45 | O=C(NC(CO)Cc1ccc([N+](=O)[O-])cc1)C(Cl)Cl (configuration not stated) | 3.82 µM
46 | COc1cccc(NC2=NC3(CCCCC3)N=C(N)N2)c1 | 148 µM

Row | SMILES | IC50
47 | N/C(=N\N=C/c1ccc(F)cc1)N/N=C\c1ccc(F)cc1 | 38.6 µM
48 | COc1c2ccccc2nc2ccccc12 | 40.4 µM
49 | Oc1cccc(Nc2nc(NCC3CCCO3)c3ccccc3n2)c1 (configuration not stated) | 38.1 µM
50 | O=C(NNC(=S)NC(=O)c1ccccc1)c1ccc(O)cc1 | 51 µM
51 | O=C(COc1ccc(Br)cc1CNCCc1ccccc1)NCc1ccccc1 | 105 µM
52 | O=C(N=Nc1c(O)[nH]c2ccccc12)c1cc(-c2cccs2)[nH]n1 | 81.4 µM
53 | C#CCOCCOCCOCCNc1nc(N2CCN(C(=O)CCCCCCCCCCNC(=O)Cn3cc(C[C@@H](C)O)nn3)CC2)nc(N2CCN(C(=O)CCCCCCCCCCNC(=O)[C@@H]([C@H](C)CC)n3cc(CCCCCN)nn3)CC2)n1 | 141 µM
54 | Cc1ccc(C[n+]2c(-c3ccc(C)cc3)cc(-c3ccc(C)cc3)cc2-c2ccc(C)cc2)cc1 | 15.6 µM
55 | C#CCOCCOCCOCCNc1nc(N2CCN(C(=O)CCCCCCCCCCNC(=O)Cn3cc(CCCCCN)nn3)CC2)nc(N2CCN(C(=O)CCCCCCCCCCNC(=O)[C@H]([C@@H](C)CC)n3cc(CCCCN=C(N)N)nn3)CC2)n1 | 38.2 µM
56 | CC(C)Oc1ccc(Cc2cnc(N)nc2N)cc1 | 33.3 µM
57 | CCn1cc(C(=O)O)c(=O)c2cc(F)c(N3CCN(C(=S)NC(=O)c4cccc(C)c4)CC3)cc21 | 37.8 µM
58 | CCCCCC[N+](C)(C)CC/C=C1/c2ccccc2Sc2ccc(Cl)cc21 | 26.2 µM
59 | O=C(C[n+]1cc(Br)cc2ccccc21)c1ccc(Cl)cc1 | 32.7 µM
60 | CC(=O)NC(c1cccc([N+](=O)[O-])c1)c1ccc2cccnc2c1O (configuration not stated) | 101 µM
61 | NC1=NC[C@H](c2ccccc2)N1CCCCC1CCCCC1 | 28.9 µM
62 | O=C(Nc1ccc([N+](=O)[O-])cc1Cl)c1cc(Cl)ccc1O | 19.7 µM
63 | COc1cc(/C=C2/C(=O)NN(c3ccc(F)cc3)C2=O)cc([N+](=O)[O-])c1O | 62.6 µM
64 | C(=N\Nc1ccccn1)/c1cccnc1 | 30.1 µM
65 | c1cc2c(cc1C1CCCCC1)c1c3n2CCCNC3CCC1 (configuration not stated) | 20.3 µM
66 | Fc1ccc(Nc2nc(NCc3ccco3)c3ccccc3n2)cc1 | 20.7 µM
67 | O=C(N/N=C/c1sc2ccccc2c1O)c1cccc2ccccc12 | 25.8 µM
68 | O=C(/C=C/c1cccs1)NC(=S)NNC(=O)c1ccccc1O | 26.1 µM
69 | Nc1nc(Nc2ccccc2)nc2ccccc12 | 42.4 µM

Row | SMILES | IC50
70 | CCn1cc(C(=O)O)c(=O)c2cc3c(cc21)OCO3 | 80.8 µM
71 | O=C1NCCCC1C(=O)N/N=C/c1cc([N+](=O)[O-])ccc1O (configuration not stated) | 67.2 µM
72 | NC(=NCCCCCCN=C(N)/N=C(\N)Nc1ccc(Cl)cc1)/N=C(\N)Nc1ccc(Cl)cc1 | 5.2 µM and 5.4 µM and 5.13 µM
73 | O=[N+]([O-])c1cc(Cl)c2cccnc2c1O | 4.25 µM
74 | CCn1cc(C(=O)O)c(=O)c2cc(F)c(N3CCN(C(=O)Nc4ccccc4)CC3)cc21 | 50.8 µM
75 | Oc1ccc(COCc2ccccc2)c2cccnc12 | 29.2 µM
76 | Cc1ccc(Cn2c(=N)n(CC(O)COc3ccccc3)c3ccccc32)cc1 (configuration not stated) | 37.9 µM
77 | Cc1ccc(C)c(Nc2cc(C)nc3ccccc23)c1 | 54.9 µM
78 | CN1CCN(C2Cc3cc(Cl)ccc3Sc3cc(F)ccc32)CC1 (configuration not stated) | 22.2 µM
79 | CN(Cc1ccccc1)CC(O)COc1ccc(CNCc2ccc(Cl)s2)cc1 (configuration not stated) | 30.4 µM
80 | C[C@H]1O[C@@H](n2cc(F)c(=O)[nH]c2=O)[C@H](O)[C@@H]1O | 63.7 µM
81 | CN1CCN(c2nc(Nc3ccc(F)cc3)nc(Nc3ccc(F)cc3)n2)CC1 | 86.7 µM
82 | CCCCC(=O)NC(=S)NNC(=O)CC | 62.2 µM
83 | C[n+]1c2n(c3ccccc31)N=C(c1ccc(-c3ccccc3)cc1)CS2 | 26.4 µM
84 | CSc1cccc(NC(=O)/C=C/c2ccccc2)c1 | 72 µM
85 | CC(=O)NC(=S)NNC(=O)c1ccc(Br)cc1 | 29.4 µM
86 | COc1ccc(C(=O)NNC(=S)NC(=O)c2ccccc2)cc1 | 94 µM
87 | O/N=C/c1ccc(OCc2ccccc2)c(Cl)c1 | 103 µM
88 | Cc1ccc(N/C(=C\C(=O)c2ccccc2)C(=O)O)cc1 | 74.4 µM
89 | O=C(NC1CCCCC1)c1ccc([N+](=O)[O-])o1 | 119 µM
90 | Cc1ccc(Nc2nc(N)c3ccccc3n2)cc1Cl | 36.3 µM
91 | C#CCOCCOCCOCCNc1nc(N2CCN(C(=O)CCCCCCCCCCNC(=O)[C@@H](CCSC)n3cc(CCO)nn3)CC2)nc(N2CCN(C(=O)CCCCCCCCCCNC(=O)[C@H]([C@@H](C)CC)n3cc(CCCCN=C(N)N)nn3)CC2)n1 | 83.1 µM
92 | Cc1ccc(C(=O)NNC(=S)NC(=O)c2ccccc2)cc1 | 57.8 µM

Row | SMILES | IC50
93 | COc1cccc2c(=O)c(C(=O)O)c[nH]c12 | 113 µM
94 | O=C(CC(=O)c1c(F)cccc1Cl)c1ccccc1O | 42.9 µM
95 | COc1c(N2CCN[C@H](C)C2)c(F)cc2c(=O)c(C(=O)O)cn(C3CC3)c12 | 4.98 µM
96 | COc1ccc(Nc2cc(C)c3c(O)cccc3n2)cc1 | 24.9 µM
97 | O=c1c2ccccc2nc(N/N=C/c2c(O)ccc3ccccc23)n1O | 16.2 µM
98 | Cc1ccc(NC(=O)c2ccccc2)s1 | 110 µM
99 | C=CCNc1ncnc2c1[nH]c1ccc(C)cc12 | 111 µM
100 | Nc1nc(N)c(Cc2ccc(Cl)cc2Cl)c(N)n1 | 61.8 µM
101 | COc1ccccc1C(C[N+](=O)[O-])c1c(N)n(C)c(=O)n(C)c1=O (configuration not stated) | 38.5 µM
102 | CN(C)CCNC(=O)c1ccc(COc2ccc(Cl)cc2Cl)cc1 | 75.6 µM
103 | Cc1cc(OCCCCCNCCO)cc(C)c1Cl | 107 µM
104 | CCCCn1c(NS(=O)(=O)c2ccc(C)cc2)c(S(=O)(=O)c2ccccc2)c2nc3ccccc3nc21 | 9.71 µM
105 | Oc1ccc(Cl)cc1Cc1cc(Cl)ccc1O | 27.7 µM
106 | Cc1ccc(NC(=O)CNCc2ccccc2)cc1Br | 43 µM
107 | O=C(CSc1ccccn1)Nc1nonc1[N+](=O)[O-] | 116 µM
108 | Cc1ccc2sc(N(CCCN(C)C)C(=O)c3ccc(Br)s3)nc2c1C | 36.6 µM
109 | O=C(N/N=C/c1ccccn1)c1cccs1 | 65.5 µM
110 | CCCCCCCCC1=NCCc2c1[nH]c1ccccc21 | 78.4 µM
111 | CC[C@@H](C)[C@H](CN[C@H](CNC)C(C)C)NC[C@@H](C)c1ccc(CC(C)C)cc1 | 26.2 µM
112 | CN(C)CCCN1c2ccccc2Sc2ccc(C(F)(F)F)cc21 | 103 µM
